Measured values as given in paper PMC11364095 (Science Advances, 2024).

System: E. coli ATCC 35218
Assay: Resistance development assay
Format: cell-based
Settings: after 16 passages, serial passaging in sub-MIC concentrations

Compound | fold increase of MIC against E. coli ATCC 35218
colistin | 128 fold
O=C(O)c1cn(C2CC2)c2cc(N3CCNCC3)c(F)cc2c1=O [ciprofloxacin] | 256 fold
